Data taken from patent publication US8153795B2, “Substituted 1-oxa-3,8-diazaspiro[4.5]-decan-2-one-compounds and the use thereof for producing drugs” (Gruenenthal GmbH, priority 2005, dated 2012).

Key:
[1] = molecular target: T1, 5-HT transporter (Rattus norvegicus, UniProt P31652); test: 5-HT uptake inhibition in rat brain synaptosomes (medulla and pons), [3H]-5-HT; assay type: biochemical
T1 construct: from tissue; host or cells: rat brain synaptosomes (P2 fraction) from medulla and pons
Outline: (§1)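 Freshly isolated P2 synaptosomes taken from rat hypothalamus (NA) or medulla/pons (5-HT) were incubated at room temperature under O2 with [3H]-NA for 7.5 min or [3H]-5-HT for 5 min. Uptake was measured as filter-retained radioactivity by scintillation counting.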

[2] = molecular target: T2, human μ opioid receptor (Homo sapiens, UniProt P35372); test: affinity for the human μ opioid receptor, displacement of [3H]-naloxone, CHO-K1 membrane preparation; settings: percentage inhibition of specific binding of [3H]-naloxone
T2 construct: purchased NEN, Zaventem, Belgium RB-HOM; host or cells: CHO-K1 cells (recombinant expression, membrane preparation)
Procedure: Receptor affinity for the human p opioid receptor is determined in a homogeneous batch in microtitre plates. To this end, dilution series of the particular substituted 1-oxa-3,8-diazaspiro[4.5]-decan-2-one compounds to be tested were incubated at room temperature for 90 minutes in a total volume of 250 μl with a receptor membrane preparation (15-40 μg of protein per 250 μl of incubation batch) of CHO-K1 cells, which express the human p opioid receptor (RB-HOM receptor membrane preparation from NEN, Zaventem, Belgium) in the presence of 1 nmol/l of the radioactive ligand [^3H]-naloxone (NET719, from NEN, Zaventem, Belgium) and of 1 mg of WGA-SPA beads (wheat germ agglutinin SPA beads from Amersham/Pharmacia, Freiburg, Germany). The incubation buffer used is 50 mmol/l tris-HCl supplemented with 0.05 wt. % of sodium azide and 0.06 wt. % of bovine serum albumin. Nonspecific binding is determined by additionally adding 25 μmol/l of naloxone. Once the ninety minute incubation time had elapsed, the microtitre plates were centrifuged off for 20 minutes at 1000 g and the radioactivity measured in a β counter (Microbeta-Trilux, from PerkinElmer Wallac, Freiburg, Germany). The percentage displacement of the radioactive ligand from its binding to the human p opioid receptor is determined at a concentration of the substances to be tested of 1 μmol/l and stated as percentage inhibition of specific binding.

[3] = molecular target: T3, NA transporter (Rattus norvegicus, UniProt Q63380); test: noradrenalin uptake inhibition in rat brain synaptosomes (hypothalamus), [3H]-NA; assay type: biochemical
T3 construct: from tissue; host or cells: rat brain synaptosomes (P2 fraction) from hypothalamus
Outline: as §1

T2 sequence (P35372 whole entry): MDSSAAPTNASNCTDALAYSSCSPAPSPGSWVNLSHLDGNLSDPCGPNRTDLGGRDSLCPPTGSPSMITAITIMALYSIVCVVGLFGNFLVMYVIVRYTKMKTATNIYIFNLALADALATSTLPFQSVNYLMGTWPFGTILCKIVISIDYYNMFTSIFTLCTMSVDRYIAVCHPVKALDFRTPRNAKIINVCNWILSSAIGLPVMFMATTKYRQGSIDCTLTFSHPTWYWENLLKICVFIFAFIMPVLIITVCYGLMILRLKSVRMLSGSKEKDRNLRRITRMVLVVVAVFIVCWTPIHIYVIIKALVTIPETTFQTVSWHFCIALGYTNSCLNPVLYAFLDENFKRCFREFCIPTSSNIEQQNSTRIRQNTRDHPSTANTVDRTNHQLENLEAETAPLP
T1 sequence (P31652 whole entry): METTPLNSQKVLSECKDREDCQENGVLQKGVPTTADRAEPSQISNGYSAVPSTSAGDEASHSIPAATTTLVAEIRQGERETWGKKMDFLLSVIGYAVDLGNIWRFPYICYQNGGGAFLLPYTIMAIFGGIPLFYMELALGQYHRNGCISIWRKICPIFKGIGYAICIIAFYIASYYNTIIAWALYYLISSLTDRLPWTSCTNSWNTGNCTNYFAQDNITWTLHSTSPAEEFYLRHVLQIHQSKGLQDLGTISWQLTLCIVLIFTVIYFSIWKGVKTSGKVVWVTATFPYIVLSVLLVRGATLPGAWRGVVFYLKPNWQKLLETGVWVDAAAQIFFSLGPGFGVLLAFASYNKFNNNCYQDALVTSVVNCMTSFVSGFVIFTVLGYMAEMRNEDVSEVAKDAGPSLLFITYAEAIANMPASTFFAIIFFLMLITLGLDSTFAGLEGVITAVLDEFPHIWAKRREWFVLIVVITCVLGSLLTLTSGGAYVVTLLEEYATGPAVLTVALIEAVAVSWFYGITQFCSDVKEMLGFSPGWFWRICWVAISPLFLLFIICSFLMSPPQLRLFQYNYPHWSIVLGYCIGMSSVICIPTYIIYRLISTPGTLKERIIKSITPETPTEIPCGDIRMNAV
T3 sequence (Q63380 1-617): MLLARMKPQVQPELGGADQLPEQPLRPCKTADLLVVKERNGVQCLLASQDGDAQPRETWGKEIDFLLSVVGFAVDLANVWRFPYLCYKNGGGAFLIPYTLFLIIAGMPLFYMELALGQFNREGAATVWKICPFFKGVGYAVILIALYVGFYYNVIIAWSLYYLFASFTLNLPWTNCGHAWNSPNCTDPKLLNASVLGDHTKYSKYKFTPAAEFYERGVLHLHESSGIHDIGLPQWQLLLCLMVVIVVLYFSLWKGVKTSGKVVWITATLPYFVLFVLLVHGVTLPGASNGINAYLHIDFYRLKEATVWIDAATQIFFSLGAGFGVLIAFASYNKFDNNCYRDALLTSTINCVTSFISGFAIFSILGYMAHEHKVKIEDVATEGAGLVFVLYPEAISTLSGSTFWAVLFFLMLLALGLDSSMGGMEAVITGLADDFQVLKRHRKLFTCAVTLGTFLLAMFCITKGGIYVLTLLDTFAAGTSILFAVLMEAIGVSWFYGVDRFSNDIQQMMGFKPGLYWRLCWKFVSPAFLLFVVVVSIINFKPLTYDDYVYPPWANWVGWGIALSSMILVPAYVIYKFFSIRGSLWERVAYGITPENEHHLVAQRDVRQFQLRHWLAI

| SMILES | inhibition at 10 µM [1] [%] | inhibition at 1 µM [2] [%] | inhibition at 10 µM [3] [%] |
| --- | --- | --- | --- |
| CC(C)(CC(=O)O)C(=O)N1CCC2(CC1)CN(Cc1ccc(F)c(F)c1)C(=O)O2 [Example 65, 4-[3-(3,4-difluorobenzyl)-2-oxo-1-oxa-3,8-diazaspiro[4.5]dec-8-yl]-3,3-dimethyl-4-oxobutanoic acid] | 55 | 56 |  |
| CCOc1ccc(C(=O)N2CCC3(CC2)CN(Cc2ccc(C)cc2)C(=O)O3)cc1 [Example 92, 8-(4-ethoxybenzoyl)-3-(4-methylbenzyl)-1-oxa-3,8-diazaspiro[4.5]decan-2-one] | 67 | 70 | 73 |
| Cc1cc(C)cc(CN2CC3(CCN(C(=O)c4cccc(N(C)C)c4)CC3)OC2=O)c1 [Example 95, 8-(3-dimethylaminobenzoyl)-3-(3,5-dimethylbenzyl)-1-oxa-3,8-diazaspiro[4.5]decan-2-one] |  | 75 |  |
| CC(=O)Nc1ccc(C(=O)N2CCC3(CC2)CN(Cc2ccc(F)c(F)c2)C(=O)O3)cc1 [Example 96, N-{4-[3-(3,4-difluorobenzyl)-2-oxo-1-oxa-3,8-diazaspiro[4.5]decane-8-carbonyl]phenyl}acetamide] |  | 78 |  |
| O=C1OC2(CCN(C(=O)c3ccc(Br)cc3)CC2)CN1Cc1ccc(F)cc1 [Example 97, 8-(4-bromobenzoyl)-3-(4-fluorobenzyl)-1-oxa-3,8-diazaspiro[4.5]decan-2-one] |  | 67 |  |
| N#Cc1ccc(CN2CC3(CCN(C(=O)C45CC6CC(CC(C6)C4)C5)CC3)OC2=O)cc1 [Example 98, 4-[8-(adamantane-1-carbonyl)-2-oxo-1-oxa-3,8-diazaspiro[4.5]dec-3-ylmethyl]benzonitrile] |  | 75 |  |
| O=C1OC2(CCN(C(=O)c3ccc(Cl)cc3)CC2)CN1Cc1cccc(Br)c1 [Example 100, 3-(3-bromobenzyl)-8-(4-chlorobenzoyl)-1-oxa-3,8-diazaspiro[4.5]decan-2-one] |  | 64 |  |
| O=C1OC2(CCN(S(=O)(=O)Cc3cccc(Cl)c3)CC2)CN1Cc1ccccc1-c1ccccc1 [Example 149, 3-biphenyl-2-ylmethyl-8-(3-chlorobenzylsulfonyl)-1-oxa-3,8-diazaspiro[4.5]decan-2-one] |  | 61 |  |
